Experimental data: PubChem BioAssay AID180 (DTP/NCI, 2004)
Where “and” joins values, the source holds several entries; their conditions need not be identical. Equal values may be shown once.

System: BDF1 mice, Adenocarcinoma 755 s.c., tumor weight T/C
Assay: NCI In Vivo Anticancer Drug Screen. Data for tumor model Adenocarcinoma 755 (subcutaneous) in B6D2F1 (BDF1) mice
Settings: endpoint: mean tumor weight, higher = larger tumour
Experimental: The antitumor activity of compounds was measured in mice bearing transplantable tumors. Survival or tumor size were measured and the results are expressed as the measurement made in the treated group (T) divided by the measurement made in the vehicle treated control group (C). The tumor model used in this assay is Adenocarcinoma 755 (subcutaneous) in B6D2F1 (BDF1) mice

For Cc1cc(N=Nc2ccc(-c3ccc(N=Nc4ccc(O)c(C(=O)O)c4)cc3)cc2)c(N)c(N=Nc2ccc(C(=O)Nc3ccc4cc(S(=O)(=O)O)ccc4c3)cc2)c1N, the T/C (dose: 45.0 mg/kg/injection, schedule: Q01DX011 (ip), vehicle: carboxymethylcellulose (CMC)) was 158 % of control, the T/C (dose: 65.0 mg/kg/injection, schedule: Q01DX011 (ip), vehicle: carboxymethylcellulose (CMC)) was 119 % of control and the T/C (dose: 100.0 mg/kg/injection, schedule: Q01DX011 (ip), vehicle: carboxymethylcellulose (CMC)) was 69 % of control. For the same compound, the T/C (dose: 150.0 mg/kg/injection, schedule: Q01DX011 (ip), vehicle: carboxymethylcellulose (CMC)) was 72 % of control.
In the case of CC(=O)OCC1OC(n2cnc3c(Cl)nc(Cl)nc32)C(OC(C)=O)C1OC(C)=O (configuration not stated), the T/C (dose: 30.0 mg/kg/injection, schedule: Q01DX011 (ip), vehicle: carboxymethylcellulose (CMC)) is reported as 85 % of control, the T/C (dose: 60.0 mg/kg/injection, schedule: Q01DX011 (ip), vehicle: carboxymethylcellulose (CMC)) is reported as 92 % of control and the T/C (dose: 120.0 mg/kg/injection, schedule: Q01DX011 (ip), vehicle: carboxymethylcellulose (CMC)) is reported as 61 % of control. The T/C (dose: 240.0 mg/kg/injection, schedule: Q01DX011 (ip), vehicle: carboxymethylcellulose (CMC)) was 61 % of control.
O=C(O)CC(O)(CC(=O)O)C(=O)O.[Ga] was tested, and the T/C (dose: 0.15 mg/kg/injection, schedule: Q01DX011 (ip), vehicle: carboxymethylcellulose (CMC)) was 101 % of control, the T/C (dose: 0.3 mg/kg/injection, schedule: Q01DX011 (ip), vehicle: carboxymethylcellulose (CMC)) was 67 % of control and the T/C (dose: 0.31 mg/kg/injection, schedule: Q01DX011 (ip), vehicle: carboxymethylcellulose (CMC)) was 58 % of control. The T/C (dose: 0.6 mg/kg/injection, schedule: Q01DX011 (ip), vehicle: carboxymethylcellulose (CMC)) was 72 % of control, the T/C (dose: 0.62 mg/kg/injection, schedule: Q01DX011 (ip), vehicle: carboxymethylcellulose (CMC)) was 55 % of control and the T/C (dose: 1.2 mg/kg/injection, schedule: Q01DX011 (ip), vehicle: carboxymethylcellulose (CMC)) was 42 % of control and 62 % of control. The T/C (dose: 1.25 mg/kg/injection, schedule: Q01DX011 (ip), vehicle: carboxymethylcellulose (CMC)) was 25 % of control and 36 % of control, the T/C (dose: 20.0 mg/kg/injection, schedule: Q01DX011 (ip), vehicle: carboxymethylcellulose (CMC)) was 5 % of control and 18 % of control and the T/C (dose: 40.0 mg/kg/injection, schedule: Q01DX011 (ip), vehicle: carboxymethylcellulose (CMC)) was 5 % of control. For the same compound, the T/C (dose: 80.0 mg/kg/injection, schedule: Q01DX011 (ip), vehicle: carboxymethylcellulose (CMC)) was 2 % of control.
With CCCCOP(=S)(N1CC1)N1CC1 the T/C (dose: 0.19 mg/kg/injection, schedule: Q01DX011 (ip), vehicle: other) was 44 % of control, the T/C (dose: 0.19 mg/kg/injection, schedule: Q01DX011 (ip), vehicle: saline) was 102 % of control and the T/C (dose: 0.37 mg/kg/injection, schedule: Q01DX011 (ip), vehicle: other) was 38 % of control. The T/C (dose: 0.37 mg/kg/injection, schedule: Q01DX011 (ip), vehicle: saline) was 97 % of control, the T/C (dose: 0.75 mg/kg/injection, schedule: Q01DX011 (ip), vehicle: carboxymethylcellulose (CMC)) was 73 % of control and the T/C (dose: 0.75 mg/kg/injection, schedule: Q01DX011 (ip), vehicle: other) was 26 % of control. The T/C (dose: 0.75 mg/kg/injection, schedule: Q01DX011 (ip), vehicle: saline) was 113 % of control, the T/C (dose: 1.5 mg/kg/injection, schedule: Q01DX011 (ip), vehicle: carboxymethylcellulose (CMC)) was 78 % of control and the T/C (dose: 1.5 mg/kg/injection, schedule: Q01DX011 (ip), vehicle: other) was 14 % of control. For the same compound, the T/C (dose: 1.5 mg/kg/injection, schedule: Q01DX011 (ip), vehicle: saline) was 90 % of control, the T/C (dose: 3.0 mg/kg/injection, schedule: Q01DX011 (ip), vehicle: carboxymethylcellulose (CMC)) was 23 % of control and the T/C (dose: 3.0 mg/kg/injection, schedule: Q01DX011 (ip), vehicle: other) was 7 % of control. For the same compound, the T/C (dose: 3.0 mg/kg/injection, schedule: Q01DX011 (ip), vehicle: saline) was 42 % of control, the T/C (dose: 3.0 mg/kg/injection, schedule: Q## X000 (ip), vehicle: saline) was 460 % of control and the T/C (dose: 6.0 mg/kg/injection, schedule: Q## X000 (ip), vehicle: saline) was 153 % of control. The T/C (dose: 12.0 mg/kg/injection, schedule: Q## X000 (ip), vehicle: saline) was 23 % of control.
In the case of O=C(O)Cn1cccc1, the T/C (dose: 250.0 mg/kg/injection, schedule: Q01DX011 (ip), vehicle: other) is reported as 80 % of control, the T/C (dose: 500.0 mg/kg/injection, schedule: Q01DX011 (ip), vehicle: other) is reported as 98 % of control and the T/C (dose: 4000.0 mg/kg/injection, schedule: Q01DX011 (ip), vehicle: other) is reported as 70 % of control.
